Results published in patent publication US20140005163A1 (NOVARTIS AG, priority 2010, published 2014).
In brackets after ≈: the same amount, converted by molar mass. Read-outs that look alike come from different tables or passages of the source.

How the values were obtained:
[1] = Solubility at pH 6.8; type: physicochemical
Source text: The physicochemical properties of relevance for the absorption of the compound, such as the solubility and the membrane permeability, especially at a pH close to neutral pH can be measured using the procedure as described by L. ZHOU et al. in JOURNAL OF PHARMACEUTICAL SCIENCES, VOL. 96, NO. 11, p. 3052-3071 (2007) for the solubility at pH 6.8 and the procedure as described by F. Wohnsland and B. Faller in Journal of Medicinal Chemistry Vol 44, p. 923-930 (2001) for the Parallel Artificial Membrane Permeability Assay (PAMPA) at pH 6.8.

[2] = target: T1, PI3K alpha (Homo sapiens, UniProt P42336); test: PI3K alpha kinase assay (Kinase-Glo luminescence); type: biochemical
T1 construct: p85(iSH2) fusion partner (see partner chain) (N); His tag (C); made in house; host or cells: baculovirus; Tn5 (Trichoplusia ni) or TiniPro insect cells
Procedure, shortened: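 Enzyme 10 nM PI3Kα EMV B1075; ATP 1 μM; PI 10 μg/mL; Tris-HCl pH 7.5 10 mM, MgCl2 3 mM, NaCl 50 mM, CHAPS 0.05%, DTT 1 mM; 60 min RT; Kinase-Glo luminescence; 4-parameter IC50 fit, 8 concentrations, single points.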

[3] = target: T2, mTOR (Homo sapiens, UniProt P42345); test: Biochemical assay for m-TOR by TR-FRET; settings: 8 μM ATP, 400 nM GFP-4EBP1, 0.5 nM mTOR
T2 construct: purchased Invitrogen Corporation (Carlsbad/CA, USA) PV4753
Procedure, shortened: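 mTOR (0.5 nM) was incubated at rt with ATP (8 μM final) and GFP-4EBP1 (400 nM final) in 50 mM HEPES pH 7.5, 10 mM MnCl2, 50 mM NaCl, 1 mM EGTA, 1 mM DTT. EDTA stop with Tb3+-anti-p4EBP1 [pThr46] antibody (0.5 nM); TR-FRET read 15 min later.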

[4] = test system: PKB Ser473 phosphorylation in Rat1-myr-HA-p110 alpha cells; test: Reverse protein array assay, PKB Ser473 phosphorylation in Rat1-myr-p110 alpha cells; type: cell-based; settings: 0.5 h, pAkt Ser473, 30 minutes compound incubation, read-out: p-PKB IC50
Procedure, shortened: (§1)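 Lysates were arrayed at four dilutions, and phospho-PKB Ser473 was quantified by relative fluorescence signal. They came from Rat1-myr-HA-p110 alpha, beta or delta cells exposed for 30 min at 37 °C to an 8-point compound series with 0.2% DMSO constant.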

[5] = test system: PKB Ser473 phosphorylation in Rat1-myr-HA-p110 beta cells; test: Reverse protein array assay, PKB Ser473 phosphorylation in Rat1-myr-p110 beta cells; type: cell-based; settings: 0.5 h, pAkt Ser473, 30 minutes incubation, read-out: p-PKB IC50
Procedure, shortened: as §1

[6] = test system: PKB Ser473 phosphorylation in Rat1-myr-HA-p110 delta cells; test: Reverse protein array assay, PKB Ser473 phosphorylation in Rat1-myr-p110 delta cells; type: cell-based; settings: read-out: p-PKB IC50
Procedure, shortened: as §1

[7] = target: T3, PI3K delta (Homo sapiens, UniProt O00329); test: PI3K delta kinase assay (Kinase-Glo luminescence); type: biochemical
T3 construct: for the full-length p110-d subunit are generated and fused by overlapping PCR; p85(iSH2) fusion partner (see partner chain) (N); His tag (C); made in house; host or cells: baculovirus; Tn5 (Trichoplusia ni) or TiniPro insect cells
Procedure, shortened: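 Lipid kinase activity of a His-tagged p110δ full-length/p85 iSH2 fusion (10 nM) toward bovine liver phosphatidylinositol (10 μg/mL) at 1 μM ATP, pH 7.5, 60 min, room temperature. ATP consumption is quantified by luciferase-based luminescence. Four-parameter logistic fitting gives IC50.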

[8] = test system: S6 Ribosomal Protein phosphorylation Ser235/236 in TSC1 null mouse embryo fibroblast (MEF) cells; test: Reverse protein array assay, S6 Ribosomal Protein phosphorylation Ser235/236 in TSC1 null MEF cells; type: cell-based; settings: 1 h, pS6 ribosomal protein Ser235/236, 60 minutes incubation, read-out: p-S6 IC50
Procedure, shortened: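 TSC1−/− MEFs, seeded and held ≥20 h at 37 °C/5% CO2, were exposed to 8-step serial compound dilutions (0.02% DMSO final; DMSO vehicle control) for 60 min at 37 °C. Cells were then lysed on ice for 10 min and lysates spotted onto reverse protein array chips.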

[9] = pH 6.8, aqueous buffer, thermodynamic from solid, read-out: solubility

T2 sequence (P42345 1360-2549 limits assumed): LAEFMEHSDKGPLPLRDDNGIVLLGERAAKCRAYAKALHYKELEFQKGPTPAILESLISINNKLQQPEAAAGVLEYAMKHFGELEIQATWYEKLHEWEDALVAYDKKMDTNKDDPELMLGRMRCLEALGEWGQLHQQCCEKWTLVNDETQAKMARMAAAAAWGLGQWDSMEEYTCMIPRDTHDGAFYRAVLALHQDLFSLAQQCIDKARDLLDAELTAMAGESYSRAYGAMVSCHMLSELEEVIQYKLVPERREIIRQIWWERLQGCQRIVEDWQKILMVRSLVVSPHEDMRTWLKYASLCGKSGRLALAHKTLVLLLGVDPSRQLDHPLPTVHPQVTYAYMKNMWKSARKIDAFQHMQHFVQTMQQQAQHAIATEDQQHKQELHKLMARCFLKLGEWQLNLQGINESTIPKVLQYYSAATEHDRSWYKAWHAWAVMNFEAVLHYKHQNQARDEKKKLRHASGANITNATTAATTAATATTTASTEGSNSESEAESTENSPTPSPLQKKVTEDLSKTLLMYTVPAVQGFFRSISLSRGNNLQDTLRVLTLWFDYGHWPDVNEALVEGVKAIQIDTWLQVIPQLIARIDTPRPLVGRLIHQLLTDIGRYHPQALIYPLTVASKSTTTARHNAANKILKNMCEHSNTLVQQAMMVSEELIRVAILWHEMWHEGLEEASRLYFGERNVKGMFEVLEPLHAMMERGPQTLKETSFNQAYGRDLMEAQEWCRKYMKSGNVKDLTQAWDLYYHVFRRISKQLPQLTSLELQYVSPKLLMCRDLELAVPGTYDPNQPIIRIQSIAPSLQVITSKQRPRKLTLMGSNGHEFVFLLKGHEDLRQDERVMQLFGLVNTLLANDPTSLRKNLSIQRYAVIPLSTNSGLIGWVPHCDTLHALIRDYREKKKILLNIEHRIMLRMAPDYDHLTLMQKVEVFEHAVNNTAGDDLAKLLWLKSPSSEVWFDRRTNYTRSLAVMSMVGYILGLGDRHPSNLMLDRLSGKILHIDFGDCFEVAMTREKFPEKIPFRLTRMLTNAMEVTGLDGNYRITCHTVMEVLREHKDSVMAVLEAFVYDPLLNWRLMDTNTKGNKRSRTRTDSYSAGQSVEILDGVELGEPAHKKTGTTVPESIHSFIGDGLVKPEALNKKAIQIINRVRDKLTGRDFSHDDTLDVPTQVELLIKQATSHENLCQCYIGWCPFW
T1 sequence (P42336 with tags, fused parts or gaps limits assumed): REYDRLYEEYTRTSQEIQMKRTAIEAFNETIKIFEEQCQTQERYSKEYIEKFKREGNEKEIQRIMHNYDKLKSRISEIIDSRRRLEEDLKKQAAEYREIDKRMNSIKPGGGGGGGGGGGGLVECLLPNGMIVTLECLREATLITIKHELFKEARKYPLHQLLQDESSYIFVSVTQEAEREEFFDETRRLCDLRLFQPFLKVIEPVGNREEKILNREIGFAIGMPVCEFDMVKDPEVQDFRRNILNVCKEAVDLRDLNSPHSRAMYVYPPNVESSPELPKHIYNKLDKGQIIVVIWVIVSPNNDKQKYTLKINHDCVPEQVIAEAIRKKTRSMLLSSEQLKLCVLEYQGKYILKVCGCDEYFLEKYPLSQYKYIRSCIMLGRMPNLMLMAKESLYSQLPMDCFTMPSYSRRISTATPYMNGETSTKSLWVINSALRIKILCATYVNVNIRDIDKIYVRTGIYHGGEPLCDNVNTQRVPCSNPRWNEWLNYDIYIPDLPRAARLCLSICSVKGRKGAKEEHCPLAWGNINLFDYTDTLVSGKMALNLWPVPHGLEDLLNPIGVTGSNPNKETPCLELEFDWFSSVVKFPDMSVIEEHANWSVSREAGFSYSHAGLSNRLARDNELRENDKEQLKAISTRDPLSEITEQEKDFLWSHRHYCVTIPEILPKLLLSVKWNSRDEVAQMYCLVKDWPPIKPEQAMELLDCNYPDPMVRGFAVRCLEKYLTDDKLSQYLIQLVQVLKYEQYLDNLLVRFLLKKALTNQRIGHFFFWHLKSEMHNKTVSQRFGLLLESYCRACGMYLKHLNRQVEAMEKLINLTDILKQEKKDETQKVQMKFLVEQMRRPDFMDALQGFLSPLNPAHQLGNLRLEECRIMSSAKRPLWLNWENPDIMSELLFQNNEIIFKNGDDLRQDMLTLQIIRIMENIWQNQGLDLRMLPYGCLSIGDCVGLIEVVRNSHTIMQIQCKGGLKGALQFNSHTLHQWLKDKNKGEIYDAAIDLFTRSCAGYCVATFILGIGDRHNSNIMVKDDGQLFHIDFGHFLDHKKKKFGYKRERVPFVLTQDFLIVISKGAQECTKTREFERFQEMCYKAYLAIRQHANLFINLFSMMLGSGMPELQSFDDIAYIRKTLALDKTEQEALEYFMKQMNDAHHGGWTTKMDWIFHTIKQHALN
T3 sequence (O00329 with tags, fused parts or gaps limits assumed): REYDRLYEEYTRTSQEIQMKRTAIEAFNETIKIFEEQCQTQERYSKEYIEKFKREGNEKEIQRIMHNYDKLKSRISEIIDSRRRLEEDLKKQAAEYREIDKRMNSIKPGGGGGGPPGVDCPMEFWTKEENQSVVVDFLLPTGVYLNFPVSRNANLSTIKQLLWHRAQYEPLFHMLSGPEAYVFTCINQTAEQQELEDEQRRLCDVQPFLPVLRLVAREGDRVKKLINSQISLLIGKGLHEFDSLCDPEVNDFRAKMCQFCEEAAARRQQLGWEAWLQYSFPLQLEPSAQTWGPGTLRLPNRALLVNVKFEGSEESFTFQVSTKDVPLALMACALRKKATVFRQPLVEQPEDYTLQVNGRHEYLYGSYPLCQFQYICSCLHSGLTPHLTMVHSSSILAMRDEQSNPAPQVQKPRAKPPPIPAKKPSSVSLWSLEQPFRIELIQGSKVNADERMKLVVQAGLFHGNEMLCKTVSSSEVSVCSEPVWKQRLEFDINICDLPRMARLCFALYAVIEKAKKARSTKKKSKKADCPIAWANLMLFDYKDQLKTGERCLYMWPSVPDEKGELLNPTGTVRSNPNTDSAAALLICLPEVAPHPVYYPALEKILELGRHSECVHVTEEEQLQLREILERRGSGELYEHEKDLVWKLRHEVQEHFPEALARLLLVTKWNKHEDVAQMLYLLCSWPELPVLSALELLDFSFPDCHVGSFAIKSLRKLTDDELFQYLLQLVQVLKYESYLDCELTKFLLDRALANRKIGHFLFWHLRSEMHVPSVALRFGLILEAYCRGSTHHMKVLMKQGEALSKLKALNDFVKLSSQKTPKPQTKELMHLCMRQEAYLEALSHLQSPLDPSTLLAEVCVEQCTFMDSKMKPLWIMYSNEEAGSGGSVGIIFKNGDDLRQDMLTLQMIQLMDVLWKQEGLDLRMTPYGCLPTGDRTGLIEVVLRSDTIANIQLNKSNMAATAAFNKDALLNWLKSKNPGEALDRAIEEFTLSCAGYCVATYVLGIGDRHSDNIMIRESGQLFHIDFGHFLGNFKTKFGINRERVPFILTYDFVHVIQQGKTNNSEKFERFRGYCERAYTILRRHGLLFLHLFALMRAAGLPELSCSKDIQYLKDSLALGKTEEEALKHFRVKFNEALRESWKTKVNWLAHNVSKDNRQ

| SMILES | solubility [1, 9] [µg/mL] | IC50 [2] [nM] | IC50 [3] [nM] | IC50 [4] [nM] | IC50 [5] [nM] | IC50 [6] [nM] | IC50 [7] [nM] | IC50 [8] [nM] | solubility ([1]; pH 6.8) [µg/mL] |
| --- | --- | --- | --- | --- | --- | --- | --- | --- | --- |
| CN(C)c1ccc(-c2ccc3ncc4c(c3c2)n(-c2ccnn2C)c(=O)n4C)cn1 [Example 4.7, 8-(6-Dimethylamino-pyridin-3-yl)-3-methyl-1-(2-methyl-2H-pyrazol-3-yl)-1,3-dihydro-imidazo[4,5-c]quinolin-2-one] | 3 (≈ 7.51 µM) | 461 | 505 | 134 | 121 | 547 |  |  |  |
| Cn1nccc1-n1c(=O)n(C)c2cnc3ccc(-c4ccc(C(F)(F)F)nc4)cc3c21 [Example 8.1, 3-Methyl-1-(2-methyl-2H-pyrazol-3-yl)-8-(6-trifluoromethyl-pyridin-3-yl)-1,3-dihydro-imidazo[4,5-c]quinolin-2-one] | 18 (≈ 42.4 µM) | 210 | 734 | 589 |  |  | 167 |  |  |
| Cc1nn(CC(=O)N(C)C)c(C)c1-n1c(=O)n(C)c2cnc3ccc(-c4ccccc4)cc3c21 [Example 37.4, 2-[3,5-Dimethyl-4-(3-methyl-2-oxo-8-phenyl-2,3-dihydro-imidazo[4,5-c]quinolin-1-yl)-pyrazol-1-yl]-N,N-dimethyl-acetamide] | 37 (≈ 81.4 µM) | 266 |  |  |  |  |  | 844 |  |
| COCCn1nc(C)c(-n2c(=O)n(C)c3cnc4ccc(-c5ccc(-n6cccn6)cc5)cc4c32)c1C [Example 51.5] | 14 (≈ 28.4 µM) | 110 |  | 17 |  | 516 | 362 | 25 |  |
| Cc1nn(C)cc1-n1c(=O)n(C)c2cnc3ccc(-c4cnc5c(c4)n(C)c(=O)n5C)cc3c21 [Example 67, 8-(1,3-Dimethyl-2-oxo-2,3-dihydro-1H-imidazo[4,5-b]pyridin-6-yl)-1-(1,3-dimethyl-1H-pyrazol-4-yl)-3-methyl-1,3-dihydro-imidazo[4,5-c]quinolin-2-one] |  |  |  | 166 | 171 | 298 |  |  | 2 (≈ 4.4 µM) |
| Cc1nn(C)cc1-n1c(=O)n(C)c2cnc3ccc(-c4cnc5c(c4)nc(C)n5C)cc3c21 [Example 73, 8-(2,3-Dimethyl-3H-imidazo[4,5-b]pyridin-6-yl)-1-(1,3-dimethyl-1H-pyrazol-4-yl)-3-methyl-1,3-dihydro-imidazo[4,5-c]quinolin-2-one] | 41 (≈ 93.5 µM) | 173 | 160 | 337 | 417 | 530 | 372 |  |  |
| CCN(C)c1ccc(-c2ccc3ncc4c(c3c2)n(-c2cn(C(C)C)nc2C)c(=O)n4C)cn1 [Example 98.2, 8-[6-(Ethyl-methyl-amino)-pyridin-3-yl]-1-(1-isopropyl-3-methyl-1H-pyrazol-4-yl)-3-methyl-1,3-dihydro-imidazo[4,5-c]quinolin-2-one] | 75 (≈ 165 µM) | 118 | 30 | 10 | 18 | 59 | 101 |  |  |
| CCN(C)c1ccc(-c2ccc3ncc4c(c3c2)n(-c2cn(CC)nc2C)c(=O)n4C)cn1 [Example 98.3, 8-[6-(Ethyl-methyl-amino)-pyridin-3-yl]-1-(1-ethyl-3-methyl-1H-pyrazol-4-yl)-3-methyl-1,3-dihydro-imidazo[4,5-c]quinolin-2-one] | 10 (≈ 22.6 µM) | 55 | 22 | 12 | 16 | 43 | 72 |  |  |
| Cc1nn(C)cc1-n1c(=O)n(C)c2cnc3ccc(-c4ccccn4)cc3c21 [Example 114, 1-(1,3-Dimethyl-1H-pyrazol-4-yl)-3-methyl-8-pyridin-2-yl-1,3-dihydro-imidazo[4,5-c]quinolin-2-one] | 61 (≈ 165 µM) |  |  | 303 | 725 |  |  |  |  |
| Cc1nn(C)cc1-n1c(=O)n(C)c2cnc3ccc(-c4ccnc(N(C)C(C)C)c4)cc3c21 [Example 130, 1-(1,3-Dimethyl-1H-pyrazol-4-yl)-8-[2-(isopropyl-methyl-amino)-pyridin-4-yl]-3-methyl-1,3-dihydro-imidazo[4,5-c]quinolin-2-one] | 74 (≈ 168 µM) | 785 | 494 | 330 |  |  | 386 |  |  |
| CCOc1ccc(-c2ccc3ncc4[nH]c(=O)n(-c5cn(CC(=O)N6CCN(C)CC6)nc5C)c4c3c2)cn1 [Example 133, 8-(6-Ethoxy-pyridin-3-yl)-1-{3-methyl-1-[2-(4-methyl-piperazin-1-yl)-2-oxo-ethyl]-1H-pyrazol-4-yl}-1,3-dihydro-imidazo[4,5-c]quinolin-2-one] | 72 (≈ 137 µM) | 938 | 13 |  |  |  | 932 | 508 |  |
| Cc1nn(C)cc1-n1c(=O)n(C)c2cnc3ccc(-c4cnc(N5CCCC5)nc4)cc3c21 [Example 140.2, 1-(1,3-Dimethyl-1H-pyrazol-4-yl)-3-methyl-8-(2-pyrrolidin-1-yl-pyrimidin-5-yl)-1,3-dihydro-imidazo[4,5-c]quinolin-2-one] |  |  |  | 29 | 36 | 62 |  | 6 | 2 (≈ 4.54 µM) |
| COCc1cc(-c2ccc3ncc4c(c3c2)n(-c2cn(C)nc2Cl)c(=O)n4C)cnc1N [Example 168.3, 8-(6-Amino-5-methoxymethyl-pyridin-3-yl)-1-(3-chloro-1-methyl-1H pyrazol-4-yl)-3-methyl-1,3-dihydro-imidazo[4,5-c]quinolin-2-one] | 14 (≈ 31.1 µM) |  | < 3 | 10 | 6 | 7 |  | < 0.5 |  |
| CCc1ncc(-c2ccc3ncc4c(c3c2)n(-c2cn(C)nc2C)c(=O)n4C)cc1OC(C)C [Example 186, 1-(1,3-Dimethyl-1H-pyrazol-4-yl)-8-(6-ethyl-5-isopropoxy-pyridin-3-yl)-3-methyl-1,3-dihydro-imidazo[4,5-c]quinolin-2-one] | 8 (≈ 17.5 µM) |  | 56 | < 5 | 34 | 27 |  | 1.02 |  |
| Cc1nn(C)cc1-n1c(=O)n(C)c2cnc3ccc(-c4ccc(N5CC[C@H](O)C5)nc4)cc3c21 [Example 212.2, 1-(1,3-Dimethyl-1H-pyrazol-4-yl)-8-[6-((S)-3-hydroxy-pyrrolidin-1-yl)-pyridin-3-yl]-3-methyl-1,3-dihydro-imidazo[4,5-c]quinolin-2-one] | 43 (≈ 94.4 µM) | 215 | 92 | 115 | 185 |  | 647 |  |  |
| Cn1cc(-n2c(=O)n(C)c3cnc4ccc(-c5cncc(C(C)(C)O)c5)cc4c32)c(Cl)n1 [Example 215.3, 1-(3-Chloro-1-methyl-1H-pyrazol-4-yl)-8-[5-(1-hydroxy-1-methyl-ethyl)-pyridin-3-yl]-3-methyl-1,3-dihydroimidazo[4,5-c]quinolin-2-one] | 21 (≈ 46.8 µM) |  | 7 | 13 | 16 | 22 |  | 1 |  |
| CCNC(=O)c1cc(-c2ccc3ncc4c(c3c2)n(-c2c(C)nn(C)c2C)c(=O)n4C)cnc1NC [Example 242.2, N-Ethyl-2-methylamino-5-[3-methyl-2-oxo-1-(1,3,5-trimethyl-1H-pyrazol-4-yl)-2,3-dihydro-1H-imidazo[4,5-c]quinolin-8-yl]-nicotinamide] | > 485 |  |  | 371 | 995 | 895 |  | 88 |  |
